Read-outs that look alike come from different tables or passages of the source. Where a SMILES comes first, the peptide text is derived from it. [ ]: non-standard residue; d: D form. ξ: configuration not given here. ξLac(3-iPr) = CC(C)CC(O)C(=O)O; NMeV = CN[CH](C(=O)O)C(C)C; NMeA = CN[CH](C)C(=O)O; βAla = NCCC(=O)O
Tested on: wild-type ZIKV (Ugandan MR766 strain) in Vero cells
Experiment: ZIKV cytopathic effect (CPE) inhibition qHTS assay, CellTiter-Glo readout
Type: cell-based, Zika virus
Conditions: for Emax: read-out: Max response
[1] = Zika virus, Vero, read-out: Log AC50 (M) (converted)
[2] = Zika virus, Vero, read-out: Log AC50 (converted)

| Compound | CC-v2 (curve class classification of the dose response curve) | Efficacy | AC50 (Zika virus, Vero) [M] | AC50 [1] [M] | other results |
| --- | --- | --- | --- | --- | --- |
| O=S(=O)(c1ccc(S(=O)(=O)n2cnc3ccccc32)cc1)N1CCCCCC1 [MLS000033224-02] | -3 | -29.668 | 3.17e-05 | 3.17e-05 |  |
| O=c1c2ccccc2nc2n1CCc1c-2[nH]c2ccccc12 [NCGC00015892-08] | -2.2 | -34.451 | 4.11e-05 | 4.11e-05 |  |
| COc1ccc(CCN(C)CCCC(C#N)(c2ccc(OC)c(OC)c2)C(C)C)cc1OC (centres unmarked) [NCGC00016083, Verapamil, reference compound] |  |  |  |  | Identified as active in CPE assay validation set: identified |
| COc1ccc2c(OC)c3ccoc3nc2c1OC [NCGC00016333-05] |  | -23.663 | 1.84e-05 | 1.84e-05 |  |
| C[S+]([O-])c1ccc(-c2nc(-c3ccncc3)c(-c3ccc(F)cc3)[nH]2)cc1 (centres unmarked) [NCGC00025035, SB-203580, reference compound] |  |  |  |  | Identified as active in CPE assay validation set: identified |
| CCOC(=O)C1=C(N)Oc2ccc(Br)cc2C1C(C#N)C(=O)OCC (centres unmarked) [NCGC00025207-15] |  | -30.652 |  | 7.31e-05 |  |
| CCOC(=O)C1=C(N)Oc2ccc(Br)cc2C1C(C#N)C(=O)OCC (centres unmarked) [NCGC00025207-16] |  | -33.191 |  |  | AC50: 3.26e-05 M; Curve class: -3; AC50 [2]: 3.26e-05 M; Emax (Zika virus, Vero): -2.2% |
| C[C@H]1O[C@@H](O[C@H]2[C@@H](O)C[C@H](O[C@H]3[C@@H](O)C[C@H](O[C@H]4CC[C@@]5(C)[C@H](CC[C@@H]6[C@@H]5C[C@@H](O)[C@]5(C)[C@@H](C7=CC(=O)OC7)CC[C@]65O)C4)O[C@@H]3C)O[C@@H]2C)C[C@H](O)[C@@H]1O [NCGC00090797-15] |  | -19.155 | 8.2e-06 | 8.2e-06 |  |
| O=C1Nc2ccc(Cl)cc2[C@@](C#CC2CC2)(C(F)(F)F)O1 [NCGC00159337, efavirenz, reference compound] |  |  |  |  | Identified as active in CPE assay validation set: identified |
| COc1ccc2cc1Oc1ccc(cc1)C[C@H]1c3c(cc4c(c3Oc3cc5c(cc3OC)CCN(C)[C@@H]5C2)OCO4)CCN1C [NCGC00161621-05] |  | -31.519 | 6.51e-05 | 6.51e-05 |  |
| CN(C)CC1CCn2c(c(C3=C(c4cn(C)c5ccccc45)C(=O)NC3=O)c3ccccc32)C1 (centres unmarked) [NCGC00163696-04] |  | -28.697 | 3.26e-05 | 3.26e-05 |  |
| O=C1c2c(O[C@@H]3O[C@H](CO)[C@@H](O)[C@H](O)[C@H]3O)cc(O)cc2OC1(O)Cc1ccc(O)cc1 (some centres unmarked) [NCGC00168800-03] | -3 | -41.876 | 3.17e-05 | 3.17e-05 |  |
| C=C1C(=O)O[C@@H]2C3C(=C(C)[C@@H](O)[C@@H](OC(=O)/C(=C/C)COC(C)=O)[C@@H]12)C(=O)[C@H]1O[C@@]31C (some centres unmarked) [NCGC00168883-03] | -2.1 | -116.882 | 3.17e-05 | 3.17e-05 |  |
| C=CC/C=C\C/C=C\CCCCCCCc1cc(O)cc(O)c1 [NCGC00168928-02] |  | -22.946 | 4.53e-05 | 4.53e-05 |  |
| COc1cc2occc2c(O[C@@H]2O[C@H](CO)[C@@H](O)[C@H](O)[C@H]2O)c1CCC(=O)O [NCGC00168932-02] | -3 | -83.984 | 1.59e-05 | 1.59e-05 |  |
| CC(=O)O[C@@]1(C)C[C@@H](O)[C@]2(O)C=CO[C@@H](O[C@@H]3O[C@H](CO)[C@@H](O)[C@H](O)[C@H]3O)[C@@H]21 [NCGC00169032-03] |  | -81.683 | 1.42e-05 |  | Curve class: -3; AC50 [2]: 1.42e-05 M; Emax (Zika virus, Vero): 1.21% |
| C/C=C(/C)C(=O)O[C@H]1C=C(CO)C(=O)[C@H](OC(=O)/C(C)=C/CO)[C@H]1C(C)C [NCGC00169078-03] | -3 | -32.45 | 5.08e-05 | 5.08e-05 |  |
| C=C1C(=O)O[C@@H]2C[C@H](C)[C@@H]3CC(=O)C(C)=C3C[C@H]12 [NCGC00169080-02] |  | -111.978 | 6.51e-05 |  | Curve class: -3; AC50 [2]: 6.51e-05 M; Emax (Zika virus, Vero): -89.7% |
| C=C(C)C(=O)O[C@H]1[C@H]2C(=C)C(=O)O[C@@H]2C[C@@H](C)/C=C\C(=O)[C@](C)(O)[C@@H]1OC(C)=O [NCGC00169210-02] |  | -39.663 | 3.55e-05 |  | Curve class: -3; AC50 [2]: 3.55e-05 M; Emax (Zika virus, Vero): -40.2% |
| C=C(C)C(=O)O[C@H]1[C@H]2C(=C)C(=O)O[C@@H]2C[C@@H](C)[C@@H]2O[C@@H]2C(=O)[C@](C)(O)[C@@H]1OC(=O)C(=C)C [NCGC00169479-03] | -3 | -35.91 | 3.55e-05 | 3.55e-05 |  |
| C[C@H]1C(=O)N2c3ccccc3[C@@]3(O)C[C@@H]4C(=O)N[C@](C)(c5nc6ccccc6c(=O)n54)N1[C@@H]23 [NCGC00169614-02] |  | -78.987 | 1.59e-05 |  | Curve class: -3; AC50 [2]: 1.59e-05 M; Emax (Zika virus, Vero): 0.173% |
| C=C(C(=O)O)[C@@H]1CC[C@@]2(C)CCC[C@@](C)(O)[C@@H]2C1 [NCGC00169889-02] |  | -77.65 | 2.91e-05 |  | Curve class: -3; AC50 [2]: 2.91e-05 M; Emax (Zika virus, Vero): -0.865% |
| CCC(C)C1NC(=O)C2CCCN2C(=O)C(CC(C)C)OC(=O)CCNC(=O)C(C)N(C)C(=O)C(C(C)C)N(C)C1=O (centres unmarked) [NCGC00169957-03] (cyclo([ξLac(3-iPr)]PI[NMeV][NMeA][βAla]); configuration not given here) | -2.2 | -56.609 | 1.93e-05 | 1.93e-05 |  |
| CC1(C)CC[C@]2(C(=O)O)CC[C@]3(C)C(=CCC4[C@@]5(C)CC[C@H](O[C@@H]6O[C@H](C(=O)O)[C@@H](O[C@@H]7OC[C@@H](O)[C@H](O)[C@H]7O)[C@H](O)[C@H]6O)C(C)(C)C5CC[C@]43C)C2C1O (some centres unmarked) [NCGC00179805-02] | -3 | -39.908 | 2.73e-05 | 2.73e-05 |  |
| COC(=O)C12CCC(C)C(C)C1C1=CCC3C4(C)CCC(OC(C)=O)C(C)(C)C4CCC3(C)C1(C)CC2 (centres unmarked) [NCGC00179932-02] | -3 | -73.633 | 1.42e-05 | 1.42e-05 |  |
| C=C(C)C1=C[C@@]2(C)C(=CC1=O)CC[C@@H](O)[C@@H]2C [NCGC00180357-02] |  | -25.033 | 1.46e-05 | 1.46e-05 |  |
| CO[C@H]1[C@H](O)[C@H](O[C@H]2CC[C@]3(C)C4CC[C@]5(C)[C@H](C6=CC(=O)OC6)CC[C@]5(O)C4CC[C@@H]3C2)O[C@@H](C)[C@@H]1O (some centres unmarked) [NCGC00180641-02] |  | -18.714 | 1e-06 | 1e-06 |  |
| C=C[C@H]1[C@H](O[C@@H]2O[C@H](CO)[C@@H](O)[C@H](O)[C@H]2O)OC=C2C(=O)OCC[C@H]21 [NCGC00180755-03] |  |  |  |  | AC50 (Zika virus, Vero, from Hill fit of the response curve, 50% of maximum activity response, 194 cherry-picked compounds, protocol name not given, read-out: AC50): 1.28e-05 M; AC50 (Zika virus, Vero, potency in log units (Molar) from Hill fit of the response curve, 194 cherry-picked compounds, protocol name not given, read-out: Log AC50 (converted)): 1.28e-05 M; CC-v2 (curve class classification of the dose response curve) (curve class v2 (Inglese et al. 2006)): -3; Efficacy (difference between neutral response and maximum compound response): -78.228 |
| C/C=C(\C)C(=O)O[C@H]1C=C(CO)C(=O)[C@H](OC(C)=O)[C@H]1C(C)C [NCGC00180769-03] | -3 | -32.712 | 4.53e-05 | 4.53e-05 |  |

— paper PMC8765781, “A platform of assays for the discovery of anti-Zika small-molecules with activity in a 3D-bioprinted outer-blood-retina model” (PLoS ONE, 2022)
